Reference: US20250025451A1, “TREATMENT OF CANCER WITH KDM4 INHIBITORS” (Celgene Corporation, priority 2021, published 2025)

Test system: 301 cancer cell lines from different tumor types
Test: 2D cell viability inhibition assay, broad cancer cell line panel (OncoPanel; CellTiter-Glo)
Assay type: cell-based
Parameters: key to Emax: % of DMSO control (minimum response over dose range); AUC: scale not given here
Details: for AUC / Emax: 168 hours; for Emax: in % (unit assumed)
Method: In a larger screening study, compound 1 was evaluated across a broad cancer cell line panel (OncoPanel; HD Biosciences) composed of 301 cancer cell lines from different tumor types.
2D cell viability inhibition assays were performed in multiwell plates seeded with cells from the panel. After seeding, the plates were cultured overnight in a humidified incubator at 37° C. to promote adherence. Assays were initiated in individual wells by adding either DMSO as a vehicle control, growth media as a blank, or serially diluted compound 1 (10 μM to 0.0005 μM with 1:3 serial dilution). Cultures were incubated for 168 hours after which the number of viable cells in each test well was assessed using the CellTiter-Glo® Luminescent Cell Viability Assay. Luminescence readouts were performed using an EnVision® Multilabel Reader and the compound 1 readouts were normalized to the DMSO control readouts, expressed as a percent of the control. Outliers were flagged out by visual inspection. Percent of control was plotted against the corresponding compound 1 concentration and the absolute IC50 value was determined using four-parameter logistic non-linear regression as the concentration where inhibition was 50% of the control. […] Emax was recorded as the minimum in y with the compound dose range. […] The sensitive/moderate/resistant calls for each cell line was determined by visually inspecting the resulting clustering dendrogram. All the analyses were done in R Core Team.

[1] = Homo sapiens, NCI-H1650, 168 h, NCIH1650 (lung, bronchioloalveolar adenocarcinoma)
[2] = Homo sapiens, NCI-H1755, 168 h, NCIH1755 (lung, adenocarcinoma)
[3] = Homo sapiens, NCI-H1838, 168 h, NCIH1838 (lung, non-small cell carcinoma)
[4] = Homo sapiens, NCI-H2009, 168 h, NCIH2009 (lung, adenocarcinoma)
[5] = Homo sapiens, ONS-76, 168 h, ONS76 (central nervous system, NS)
[6] = Homo sapiens, OVCAR-3, 168 h, NIHOVCAR3 (ovary, NS)
[7] = Homo sapiens, RPMI-7951, 168 h, RPMI7951 (skin, NS)
[8] = Homo sapiens, SAOS-2, 168 h, SAOS2 (bone, NS)
[9] = Homo sapiens, SCC-9, 168 h, SCC9 (upper aerodigestive tract, squamous cell carcinoma)
[10] = Homo sapiens, SCC-15, 168 h, SCC15 (upper aerodigestive tract, squamous cell carcinoma)
[11] = Homo sapiens, SCC-25, 168 h, SCC25 (upper aerodigestive tract, squamous cell carcinoma)
[12] = Homo sapiens, SK-HEP1, 168 h, SKHEP1 (liver, adenocarcinoma)
[13] = Homo sapiens, SK-MEL-24, 168 h, SKMEL24 (skin, NS)
[14] = Homo sapiens, SK-N-SH, 168 h, SKNSH (autonomic ganglia, NS)
[15] = Homo sapiens, SK-OV-3, 168 h, SKOV3 (ovary, adenocarcinoma)
[16] = Homo sapiens, SNU-C1, 168 h, SNUC1 (large intestine, adenocarcinoma)
[17] = Homo sapiens, SW837, 168 h, SW837 (large intestine, adenocarcinoma)
[18] = Homo sapiens, SW1417, 168 h, SW1417 (large intestine, adenocarcinoma)
[19] = Homo sapiens, TE-15, 168 h, TE15 (oesophagus, squamous cell carcinoma)
[20] = Homo sapiens, UACC-812, 168 h, UACC812 (breast, ductal carcinoma)
[21] = Homo sapiens, VCaP, 168 h, VCAP (prostate, adenocarcinoma)
[22] = KASUMI1 (haematopoietic and lymphoid tissue, acute myeloid leukaemia)
[23] = KG1 (haematopoietic and lymphoid tissue, acute myeloid leukaemia)
[24] = KURAMOCHI (ovary, undifferentiated carcinoma)
[25] = KYSE70 (oesophagus, squamous cell carcinoma)
[26] = LU99 (lung, large cell carcinoma)
[27] = MDAMB157 (breast, ductal carcinoma)
[28] = MDAMB 175 VII (breast, ductal carcinoma)
[29] = NCI-H1435, 168 h, NCIH1435 (lung, non-small cell carcinoma)
[30] = NCIH596 (lung, mixed adenosquamous carcinoma)
[31] = NCIH1395 (lung, adenocarcinoma)
[32] = NCIH1435 (lung, non-small cell carcinoma)
[33] = NCIH1563 (lung, adenocarcinoma)
[34] = NCIH1573 (lung, adenocarcinoma)
[35] = NCIH1650 (lung, bronchioloalveolar adenocarcinoma)
[36] = NCIH1755 (lung, adenocarcinoma)
[37] = NCIH1838 (lung, non-small cell carcinoma)
[38] = NCIH2009 (lung, adenocarcinoma)
[39] = NMCG1 (central nervous system, NS)
[40] = ONS76 (central nervous system, NS)
[41] = SCC9 (upper aerodigestive tract, squamous cell carcinoma)
[42] = SCC15 (upper aerodigestive tract, squamous cell carcinoma)
[43] = SCC25 (upper aerodigestive tract, squamous cell carcinoma)
[44] = SNUC1 (large intestine, adenocarcinoma)
[45] = SW579 (thyroid, anaplastic carcinoma)
[46] = SW579, 168 h, SW579 (thyroid, anaplastic carcinoma)
[47] = SW837 (large intestine, adenocarcinoma)
[48] = SW1271 (lung, small cell carcinoma)
[49] = SW1271, 168 h, SW1271 (lung, small cell carcinoma)
[50] = SW1417 (large intestine, adenocarcinoma)
[51] = T24 (urinary tract, transitional cell carcinoma)
[52] = TE1 (oesophagus, squamous cell carcinoma)
[53] = TE8 (oesophagus, squamous cell carcinoma)
[54] = TE15 (oesophagus, squamous cell carcinoma)
[55] = UACC812 (breast, ductal carcinoma)
[56] = VCAP (prostate, adenocarcinoma)

## CC(C)c1ccc(N(C)c2ccc3c(c2)OCC[C@H]3CNc2cnccc2C(=O)O)cc1 [Compound 1, 3-({[(4R)-7-{methyl[4-(propan-2-yl)phenyl]amino}-3,4-dihydro-2H-1-benzopyran-4-yl]methyl}amino)pyridine-4-carboxylic acid]
[1]
  EC50: ≥ 10 µM
  IC50: ≥ 10 µM
[2]
  EC50: ≥ 10 µM
  IC50: ≥ 10 µM
[3]
  EC50: ≥ 10 µM
  IC50: ≥ 10 µM
[4]
  EC50: 8.02 µM
  IC50: ≥ 10 µM
[5]
  EC50: ≥ 10 µM
  IC50: ≥ 10 µM
[6]
  EC50: ≥ 10 µM
  IC50: ≥ 10 µM
[7]
  EC50: ≥ 10 µM
  IC50: ≥ 10 µM
[8]
  EC50: ≥ 10 µM
  IC50: ≥ 10 µM
[9]
  EC50: ≥ 10 µM
  IC50: ≥ 10 µM
[10]
  EC50: ≥ 10 µM
  IC50: ≥ 10 µM
[11]
  EC50: ≥ 10 µM
  IC50: ≥ 10 µM
[12]
  EC50: ≥ 10 µM
  IC50: ≥ 10 µM
[13]
  EC50: ≥ 10 µM
  IC50: ≥ 10 µM
[14]
  EC50: ≥ 10 µM
  IC50: ≥ 10 µM
[15]
  EC50: ≥ 10 µM
  IC50: ≥ 10 µM
[16]
  EC50: ≥ 10 µM
  IC50: ≥ 10 µM
[17]
  EC50: ≥ 10 µM
  IC50: ≥ 10 µM
[18]
  EC50: ≥ 10 µM
  IC50: ≥ 10 µM
[19]
  EC50: ≥ 10 µM
  IC50: ≥ 10 µM
[20]
  EC50: 6.95 µM
  IC50: ≥ 10 µM
[21]
  EC50: ≥ 10 µM
  IC50: ≥ 10 µM
[22]
  AUC: 0.8823
  Emax: 81.08
[23]
  AUC: 0.9592
  Emax: 80.44
[24]
  AUC: 0.8742
  Emax: 73.85
[25]
  AUC: 0.6942
  Emax: 50.19
[26]
  AUC: 0.79
  Emax: 64.66
MALME3M (skin, NS)
  AUC: 0.9867
  Emax: 94.08
[27]
  AUC: 0.8362
  Emax: 64.71
[28]
  AUC: 0.7385
  Emax: 60.66
MDAMB231 (breast, NS)
  AUC: 0.7262
  Emax: 55.94
MDAMB361 (breast, NS)
  AUC: 1.117
  Emax: 94.55
MDAMB415 (breast, NS)
  AUC: 0.9413
  Emax: 83.39
MDAMB436 (breast, NS)
  AUC: 0.8438
  Emax: 70.42
MDAMB468 (breast, NS)
  AUC: 0.6972
  Emax: 50.87
MEWO (skin, NS)
  AUC: 0.7237
  Emax: 56.56
[29]
  EC50: ≥ 10 µM
  IC50: ≥ 10 µM
NCIH441 (lung, adenocarcinoma)
  AUC: 0.7804
  Emax: 67.49
[30]
  AUC: 0.8151
  Emax: 61.34
[31]
  AUC: 0.8542
  Emax: 70.68
[32]
  AUC: 0.7612
  Emax: 60.04
[33]
  AUC: 0.9652
  Emax: 93.507
[34]
  AUC: 0.7482
  Emax: 53.57
[35]
  AUC: 0.8746
  Emax: 68.07
[36]
  AUC: 1.29
  Emax: 123.3293
[37]
  AUC: 0.7858
  Emax: 60.0585
[38]
  AUC: 0.7914
  Emax: 55.69
NIHOVCAR3 (ovary, NS)
  AUC: 0.7771
  Emax: 59.47
[39]
  AUC: 0.7013
  Emax: 47.06
[40]
  AUC: 0.7336
  Emax: 54.63
RPMI7951 (skin, NS)
  AUC: 0.8067
  Emax: 66.31
SAOS2 (bone, NS)
  AUC: 1.081
  Emax: 92.52
[41]
  AUC: 0.9424
  Emax: 69.25
[42]
  AUC: 0.9489
  Emax: 90.39
[43]
  AUC: 0.7789
  Emax: 62.3079
SKHEP1 (liver, adenocarcinoma)
  AUC: 0.7091
  Emax: 44.3029
SKMEL24 (skin, NS)
  AUC: 0.7882
  Emax: 58.12
SKMEL31 (skin, NS)
  AUC: 0.7393
  Emax: 59.49
SKNSH (autonomic ganglia, NS)
  AUC: 0.7295
  Emax: 53.89
SKOV3 (ovary, adenocarcinoma)
  AUC: 0.9901
  Emax: 96.03
[44]
  AUC: 0.7478
  Emax: 55.45
[45]
  AUC: 0.9203
  Emax: 79.98
[46]
  EC50: ≥ 10 µM
  IC50: ≥ 10 µM
[47]
  AUC: 0.7109
  Emax: 46.73
[48]
  AUC: 0.8179
  Emax: 65.38
[49]
  EC50: ≥ 10 µM
  IC50: ≥ 10 µM
[50]
  AUC: 0.9634
  Emax: 91.96
[51]
  AUC: 0.9289
  Emax: 75.74
[52]
  AUC: 0.938
  Emax: 84.54
[53]
  AUC: 0.816
  Emax: 72.1307
[54]
  AUC: 1.084
  Emax: 89.04
[55]
  AUC: 0.8418
  Emax: 62.67
[56]
  AUC: 0.7822
  Emax: 62.6
